From patent publication US6323196A, “Galanthamine derivatives as acetylcholinesterase inhibitors” (priority 1993, dated 2001)
Structures can show the parent of a compound that is named as a salt. Where two headings read alike, the source gives them in different places.

Columns and labels:
acetylcholinesterase = acetylcholinesterase (Homo sapiens, UniProt P22303); assay: Acetylcholinesterase Inhibition Assay (photometric method); assay type: biochemical
mice = assay type: in vivo; settings: SDDA; dose 0.003 mg/kg, s.c.; retest after 24 hours
Experimental: This utility can also be ascertained by determining the ability of these compounds to restore cholinergically deficient memory in the Dark Avoidance Assay. In this assay mice are tested for their ability to remember an unpleasant stimulus for a period of 24 hours. A mouse is placed in a chamber that contains a dark compartment; a strong incandescent light drives it to the dark compartment, where arn electric shock is administered through metal plates on the floor. The animal is removed from the testing apparatus and tested again, 24 hours later, for the ability to remember the electric shock.
If scopolamine, an anticholinergic that is known to cause memory impairment, is administered before an animal's initial exposure to the test chamber, the animal re-enters the dark compartment shortly after being placed in the test chamber 24 hours later. This effect of scopolamine is blocked by an active test compounds, resulting in a greater interval before re-entry into the dark compartment.
The test results are expressed as the percent of a group of animals in which the effect of scopolanine is blocked, as manifested by an increased interval between being placed in the test chamber and re-entering the dark compartment. Results of Dark Avoidance Assay for some of the compounds of this invention are presented in Table II along with a result for a reference compounds.

Sequence of acetylcholinesterase (P22303 32-614): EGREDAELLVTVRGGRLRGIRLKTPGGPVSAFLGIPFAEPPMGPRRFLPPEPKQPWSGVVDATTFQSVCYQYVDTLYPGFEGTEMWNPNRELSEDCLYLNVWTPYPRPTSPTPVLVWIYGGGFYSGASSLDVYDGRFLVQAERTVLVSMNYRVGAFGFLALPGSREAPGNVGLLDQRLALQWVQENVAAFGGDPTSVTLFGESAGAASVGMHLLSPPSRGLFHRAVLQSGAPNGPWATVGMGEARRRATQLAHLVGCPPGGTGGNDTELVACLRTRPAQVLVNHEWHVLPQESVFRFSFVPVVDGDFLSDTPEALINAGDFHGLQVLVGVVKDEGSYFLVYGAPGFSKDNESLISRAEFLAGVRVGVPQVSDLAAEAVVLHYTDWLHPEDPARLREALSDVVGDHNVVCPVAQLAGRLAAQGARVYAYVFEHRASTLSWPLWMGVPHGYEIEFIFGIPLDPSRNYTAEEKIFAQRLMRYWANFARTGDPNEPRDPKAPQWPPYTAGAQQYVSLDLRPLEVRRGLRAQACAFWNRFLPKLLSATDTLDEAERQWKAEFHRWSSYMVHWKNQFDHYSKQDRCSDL

Compound	IC50 (acetylcholinesterase)	Percent of Animals with Scopolamine Induced Memory Deficit Reversal (mice)	IC50 (acetylcholinesterase; photometric method, read-out: IC50 CHE I (acetylcholinesterase inhibition))
CNC(=O)Oc1ccc2c3c1O[C@H]1C[C@@H](OC(=O)C(C)C)C=C[C@@]31CCN(C)C2 [6-O-Demethy-6-O-(methylaminocarbonyl)-3-O-(propan-2-yl-carbonyl)galanthamine Hydrochloride]	47 nM	–	–
CNC(=O)Oc1ccc2c3c1O[C@H]1C[C@@H](O)C=C[C@@]31CCN(C)C2 [6-O-Demethyl-6-O-(methylaminocarbonyl)galanthamine]	–	27%	2 nM
